This experiment concerns the target T1, HDAC6 enzyme (Homo sapiens, UniProt Q9UBN7).
T1 construct: transducing full length HDAC6 gene into Sf-9 insect cells; GST; purchased SignalChem; host or cells: Sf-9 insect cells
T1 sequence (Q9UBN7 1-1215): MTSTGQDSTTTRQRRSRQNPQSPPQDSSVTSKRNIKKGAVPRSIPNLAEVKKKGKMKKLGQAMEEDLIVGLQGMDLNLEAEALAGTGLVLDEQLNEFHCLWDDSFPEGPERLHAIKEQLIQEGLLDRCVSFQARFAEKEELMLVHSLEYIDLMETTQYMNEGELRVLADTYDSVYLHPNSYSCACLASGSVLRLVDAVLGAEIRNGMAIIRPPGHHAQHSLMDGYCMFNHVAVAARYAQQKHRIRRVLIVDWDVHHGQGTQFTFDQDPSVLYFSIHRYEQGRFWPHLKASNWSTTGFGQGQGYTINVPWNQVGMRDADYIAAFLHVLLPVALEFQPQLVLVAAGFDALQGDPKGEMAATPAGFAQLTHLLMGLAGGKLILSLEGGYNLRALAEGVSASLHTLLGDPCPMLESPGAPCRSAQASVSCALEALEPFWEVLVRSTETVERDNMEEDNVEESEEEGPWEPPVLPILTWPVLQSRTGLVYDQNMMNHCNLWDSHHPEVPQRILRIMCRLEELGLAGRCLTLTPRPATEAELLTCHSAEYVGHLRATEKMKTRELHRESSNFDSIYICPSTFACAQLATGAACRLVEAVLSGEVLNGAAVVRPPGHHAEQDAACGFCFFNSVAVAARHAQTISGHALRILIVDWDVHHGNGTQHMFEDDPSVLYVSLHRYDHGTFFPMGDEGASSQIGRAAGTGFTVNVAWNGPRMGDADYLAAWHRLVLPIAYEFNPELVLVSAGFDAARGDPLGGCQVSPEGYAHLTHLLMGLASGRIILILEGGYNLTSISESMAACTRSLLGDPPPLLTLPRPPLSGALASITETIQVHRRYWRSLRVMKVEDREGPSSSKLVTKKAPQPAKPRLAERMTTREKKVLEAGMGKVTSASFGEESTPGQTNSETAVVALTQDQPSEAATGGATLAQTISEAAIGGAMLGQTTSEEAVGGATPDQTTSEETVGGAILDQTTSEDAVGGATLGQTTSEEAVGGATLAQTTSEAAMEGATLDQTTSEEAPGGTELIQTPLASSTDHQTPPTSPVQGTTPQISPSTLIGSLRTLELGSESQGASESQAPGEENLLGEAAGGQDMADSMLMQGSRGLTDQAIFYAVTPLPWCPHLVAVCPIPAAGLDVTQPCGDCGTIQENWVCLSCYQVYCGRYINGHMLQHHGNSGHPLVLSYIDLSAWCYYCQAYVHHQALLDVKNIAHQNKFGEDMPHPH
The experiment can be described thus: HDAC6 enzyme inhibitory activity (HDAC-Glo I/II Assay kit). In kind it is biochemical. The conditions noted are these: 10 μM; wells without enzyme = 100% inhibition; read-out: HDAC6 inhibitory rate (%) (10 μM). A digest of the protocol:
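Inhibition is calculated as relative activity, taking luminescence in enzyme-free wells as complete inhibition. The enzyme, full-length and GST-purified after Sf-9 expression, was exposed to compound for 60 min at room temperature before a 20 min HDAC-Glo reaction.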
Consider `O=C(N[C@@H]1CCCC[C@H]1N1Cc2c(F)cc(-c3nnc(C(F)F)o3)cc2C1=O)C(F)F` [Example 165, N-((1R,2R)-2-(6-(5-(difluoromethyl)-1,3,4-oxadiazol-2-yl)-4-fluoro-1-oxo-1,3-dihydro-2H-isoindol-2-yl)cyclohexyl)-2,2-difluoroacetamide], for which the inhibition at 10 µM is 99%.
In the case of `CCC(=O)N[C@@H]1CCCC[C@H]1N1C(=O)c2ccc(-c3nnc(C(F)F)o3)cc2C1=O` [Example 166, N-((1R,2R)-2-(5-(5-(difluoromethyl)-1,3,4-oxadiazol-2-yl)-1,3-dioxo-1,3-dihydro-2H-isoindol-2-yl)cyclohexyl)propanamide], the inhibition at 10 µM is 97%.
Then `CC(C)(C)OC(=O)N[C@@H]1COCC[C@H]1N1Cc2c(F)cc(-c3nnc(C(F)F)o3)cc2C1=O` [Example 167, tert-butyl ((3S,4R)-4-(6-(5-(difluoromethyl)-1,3,4-oxadiazol-2-yl)-4-fluoro-1-oxo-1,3-dihydro-2H-isoindol-2-yl)tetrahydro-2H-pyran-3-yl)carbamate], with 100%.
With `CC(C)(C)OC(=O)N1CCOC[C@@H]1CN1Cc2c(F)cc(-c3nnc(C(F)F)o3)cc2C1=O` [Example 168, tert-butyl (3S)-3-((6-(5-(difluoromethyl)-1,3,4-oxadiazol-2-yl)-4-fluoro-1-oxo-1,3-dihydro-2H-isoindol-2-yl)methyl)morpholine-4-carboxylate] the figure was 100%; with `N#Cc1cccc(-c2ccccc2N2Cc3ccc(-c4nnc(C(F)F)o4)cc3C2=O)c1` [Example 169, 2′-(6-(5-(difluoromethyl)-1,3,4-oxadiazol-2-yl)-1-oxo-1,3-dihydro-2H-isoindol-2-yl)biphenyl-3-carbonitrile], 101%; with `COc1cccc(-c2ccccc2N2Cc3ccc(-c4nnc(C(F)F)o4)cc3C2=O)c1` [Example 170, 6-(5-(difluoromethyl)-1,3,4-oxadiazol-2-yl)-2-(3′-methoxybiphenyl-2-yl)isoindolin-1-one], 102%.
With `O=C1c2cc(-c3nnc(C(F)F)o3)ccc2CN1c1ccccc1-c1cccc(C(F)(F)F)c1` [Example 171, 6-(5-(difluoromethyl)-1,3,4-oxadiazol-2-yl)-2-(3′-(trifluoromethyl)biphenyl-2-yl)isoindolin-1-one] the figure was 101%; with `CS(=O)(=O)c1cccc(-c2ccccc2N2Cc3ccc(-c4nnc(C(F)F)o4)cc3C2=O)c1` [Example 172, 6-(5-(difluoromethyl)-1,3,4-oxadiazol-2-yl)-2-(3′-(methylsulfonyl)biphenyl-2-yl)isoindolin-1-one], 100%; with `N[C@@H]1CCCC[C@H]1N1Cc2c(F)cc(-c3nnc(C(F)F)o3)cc2C1=O` [Example 173, 2-((1R,2R)-2-aminocyclohexyl)-6-(5-(difluoromethyl)-1,3,4-oxadiazol-2-yl)-4-fluoroisoindolin-1-one], 91%.
`O=C1c2cc(-c3nnc(C(F)F)o3)cc(F)c2CN1[C@@H]1COCC[C@H]1NC(=O)C(F)(F)C(F)(F)F` [Example 174, N-((3S,4R)-3-(6-(5-(difluoromethyl)-1,3,4-oxadiazol-2-yl)-4-fluoro-1-oxo-1,3-dihydro-2H-isoindol-2-yl)tetrahydro-2H-pyran-4-yl)-2,2,3,3,3-pentafluoropropanamide]: the inhibition at 10 µM amounted to 102%.
With `CC(C)(C(=O)N[C@@H]1CCOC[C@H]1N1Cc2c(F)cc(-c3nnc(C(F)F)o3)cc2C1=O)C(F)(F)F` [Example 175, N-((3S,4R)-3-(6-(5-(difluoromethyl)-1,3,4-oxadiazol-2-yl)-4-fluoro-1-oxo-1,3-dihydro-2H-isoindol-2-yl)tetrahydro-2H-pyran-4-yl)-3,3,3-trifluoro-2,2-dimethylpropanamide] the figure was 100%.
With `O=C1c2cc(-c3nnc(C(F)F)o3)cc(F)c2CN1[C@@H]1COCC[C@H]1NC(=O)C1(C(F)(F)F)CC1` [Example 176, N-((3S,4R)-3-(6-(5-(difluoromethyl)-1,3,4-oxadiazol-2-yl)-4-fluoro-1-oxo-1,3-dihydro-2H-isoindol-2-yl)tetrahydro-2H-pyran-4-yl)-1-(trifluoromethyl)cyclopropanecarboxamide] the figure was 100%.
As to `O=C1CCCN1[C@@H]1CCCC[C@H]1N1Cc2ncc(-c3nnc(C(F)F)o3)cc2C1=O` [Example 177, 3-(5-(difluoromethyl)-1,3,4-oxadiazol-2-yl)-6-((1R,2R)-2-(2-oxopyrrolidin-1-yl)cyclohexyl)-6,7-dihydro-5H-pyrrolo[3,4-b]pyridin-5-one], the inhibition at 10 µM stood at 97%.
With `CC1(C)OB(c2ccccc2N2Cc3ccc(-c4nnc(C(F)F)o4)cc3C2=O)OC1(C)C` [Example 178, 6-(5-(difluoromethyl)-1,3,4-oxadiazol-2-yl)-2-(2-(4,4,5,5-tetramethyl-1,3,2-dioxaborolan-2-yl)phenyl)isoindolin-1-one] the figure was 41%; with `O=C1c2ccccc2CN1[C@@H]1CCCC[C@H]1N1Cc2ncc(-c3nnc(C(F)F)o3)cc2C1=O` [Example 179, 3-(5-(difluoromethyl)-1,3,4-oxadiazol-2-yl)-6-((1R,2R)-2-(1-oxo-1,3-dihydro-2H-isoindol-2-yl)cyclohexyl)-6,7-dihydro-5H-pyrrolo[3,4-b]pyridin-5-one], 100%; with `O=C(N[C@@H]1CCOC[C@H]1N1Cc2c(F)cc(-c3nnc(C(F)F)o3)cc2C1=O)c1ccccc1Cl` [Example 180, 2-chloro-N-((3S,4R)-3-(6-(5-(difluoromethyl)-1,3,4-oxadiazol-2-yl)-4-fluoro-1-oxo-1,3-dihydro-2H-isoindol-2-yl)tetrahydro-2H-pyran-4-yl)benzamide], 100%.
Then `O=C(N[C@@H]1CCOC[C@H]1N1Cc2c(F)cc(-c3nnc(C(F)F)o3)cc2C1=O)c1cccc(Cl)c1` [Example 181, 3-chloro-N-((3S,4R)-3-(6-(5-(difluoromethyl)-1,3,4-oxadiazol-2-yl)-4-fluoro-1-oxo-1,3-dihydro-2H-isoindol-2-yl)tetrahydro-2H-pyran-4-yl)benzamide], with 97%; and `CCC(=O)N[C@@H]1CCCC[C@H]1N1Cc2c(F)cc(-c3nnc(C(F)F)o3)cc2C1=O` [Example 182, N-((1R,2R)-2-(6-(5-(difluoromethyl)-1,3,4-oxadiazol-2-yl)-4-fluoro-1-oxo-1,3-dihydro-2H-isoindol-2-yl)cyclohexyl)propanamide], with 99%; and `O=C1c2cc(-c3nnc(C(F)F)o3)cc(F)c2CN1[C@@H]1CCCC[C@H]1NC(=O)C(F)(F)F` [Example 183, N-((1R,2R)-2-(6-(5-(difluoromethyl)-1,3,4-oxadiazol-2-yl)-4-fluoro-1-oxo-1,3-dihydro-2H-isoindol-2-yl)cyclohexyl)-2,2,2-trifluoroacetamide], with 99%.
With `CC(F)(F)C(=O)N[C@@H]1CCCC[C@H]1N1Cc2c(F)cc(-c3nnc(C(F)F)o3)cc2C1=O` [Example 184, N-((1R,2R)-2-(6-(5-(difluoromethyl)-1,3,4-oxadiazol-2-yl)-4-fluoro-1-oxo-1,3-dihydro-2H-isoindol-2-yl)cyclohexyl)-2,2-difluoropropanamide], the inhibition at 10 µM is 102%.
Then `O=C(N[C@@H]1CCCC[C@H]1N1Cc2c(F)cc(-c3nnc(C(F)F)o3)cc2C1=O)[C@@H]1CC1(F)F` [Example 185, (1S)-N-((1R,2R)-2-(6-(5-(difluoromethyl)-1,3,4-oxadiazol-2-yl)-4-fluoro-1-oxo-1,3-dihydro-2H-isoindol-2-yl)cyclohexyl)-2,2-difluorocyclopropanecarboxamide], with 100%; and `O=C1c2cc(-c3nnc(C(F)F)o3)cnc2CN1[C@@H]1CCCC[C@H]1N1C(=O)c2ccccc2C1=O` [Example 186, 2-((1R,2R)-2-(3-(5-(difluoromethyl)-1,3,4-oxadiazol-2-yl)-5-oxo-5,7-dihydro-6H-pyrrolo[3,4-b]pyridin-6-yl)cyclohexyl)-H-isoindole-1,3(2H)-dione], with 101%.

These data come from patent US10435399B2, “HDAC6 inhibitory heterocyclic compound” (TAKEDA PHARMACEUTICAL COMPANY LIMITED, priority 2017, dated 2019).
